The text below walks through data of patent publication US12539301B2, “Compound external preparation for treating alopecia areata and preparation method therefor” (CHANGSHA JINGYI PHARMACEUTICAL TECHNOLOGY CO., LTD, priority 2020, dated 2026).

Counter-ions that a name gives are not always drawn. Like-named read-outs stand apart in the source and are kept apart here.

Data set [1] is classed as physicochemical. The note with it: for Dissolution condition: 100 parts per 1 part API, 30 min, heating (60° C.), after cooling. An excerpt:
Dissolution condition and dissolution required for quantifying the API in a quantitive solvent were used as preliminary evaluation indexes, and a solvent capable of dissolving both active ingredients is preferred. Icon meaning: x: insoluble (this system is a white opaque suspension with visible white solid particles); ∘: incompletely soluble (this system is partially transparent, with white visible bulk solids or suspended solids); √ completely soluble (the system is a completely transparent solution, without suspended substances and solid insoluble substances); and /: not investigated.

Data set [2] can be described thus: Solubility and storage stability (crystallization) of tofacitinib in gels and liniments with and without minoxidil. It counts as physicochemical. The following applies: in water and an organic solvent, gel kept stable.
Description: (1) Different proportions of tofacitinib were set, a mixture of water and an organic solvent was used as a mixed solvent, and a single gel and a compound gel, and a single liniment and a compound liniment were prepared for comparatively investigating dissolved states of tofacitinib in the preparations with and without addition of minoxidil. The samples were stored at the room temperature for 1 month after the preparations were prepared, and stability of tofacitinib was evaluated by whether crystallization occurred or not during the storage.
(2) For an unstable preparation which is easy to precipitate tofacitinib crystals during the storage, adjustments were made by adding an organic solvent component, a surfactant, a crystallization inhibitor, or a thickening agent, increasing an amount of minoxidil, for comparatively investigating improvement of the stability of tofacitinib in the preparations with the above methods.
Solubility: (∘: incompletely soluble; √: completely soluble); and stability: (x: crystallization and precipitation; √: non-crystallization) […]

On to `C[C@@H]1CCN(C(=O)CC#N)C[C@@H]1N(C)c1ncnc2[nH]ccc12` [Tofacitinib citrate], for which the “Solubility in single solvents (in words)” value in data set [1] is “poor solubility”. Besides, the Dissolution condition result in data set [1] (Example 16-b: Propylene glycol:water = 1:9 (w/w)), in data set [1] (Example 16-c: Propylene glycol:water = 3:7 (w/w)), in data set [1] (Example 16-d: Propylene glycol:water = 5:5 (w/w)), in data set [1] (Example 16-e: Propylene glycol:water = 7:3 (w/w)), in data set [1] (Example 16-f: Propylene glycol:water = 9:1 (w/w)) and in data set [1] (Example 17: Propylene glycol:water:ethanol = 5:2:3 (w/w)) was “✓” in each case. Besides, the “Amount of tofacitinib (calculated by the prototype) dissolved by minoxidil” value in data set [2] is 0.05-1.0 times the amount of minoxidil.
